Reference: US20210122771A1, “NEW MOLECULAR TWEEZERS AGAINST NEUROLOGICAL DISORDERS AND VIRAL INFECTIONS” (The Regents of the University of California, priority 2018, published 2021)
Like-named read-outs stand apart in the source and are kept apart here. Values belong to the compound of their own block, whether it stands above or below them.

Legend:
[1] = Incubation with mouse liver microsomes, LC-MS/MS; type: in vitro ADME; conditions: incubation 1 h, LC-MS/MS every 15 min
[2] = Incubation with simulated gastric fluid, LC-MS/MS; conditions: incubation 1 h, LC-MS/MS every 15 min
[3] = Incubation with mouse plasma, LC-MS/MS; conditions: incubation 1 h, LC-MS/MS every 15 min
Full 24-h PK profile = type: in vivo, mice; parameters: Brain AUC: unit not given here; conditions: for LogBB / Blood T1/2 / Brain AUC / Brain T1/2 / Blood AUC / Blood Bioavailability / AUC / half-life / bioavailability: 24-h profile; for Blood T1/2 / Brain AUC / Brain T1/2 / Blood AUC / AUC / half-life: 7 time points; for Blood AUC: in ng·h/mL; for AUC / half-life / bioavailability: mouse, in vivo; for AUC: read-out: Blood AUC; for bioavailability: read-out: Blood Bioavailability
Description: Based on the 2-time-point screen results, a full 24-h PK profile has been obtained for compounds 13 and 14. In these experiments, the blood and brain levels were measured at 7 time points—0.3, 0.6, 1, 2, 4, 8, and 24 h. Data for 1 are given for reference.

[4] = PK screening in mice, three routes, two time points; conditions: for Blood Concentration, 40 min / Brain Concentration, 40 min / Blood Concentration, 4 h / Brain Concentration, 4 h: analyte: administered compound for 13 and 14, compound 1 in all other cases; for Bioavailability, 40 min / Bioavailability, 4 h: percent ratio of the I.V. blood concentration; for bioavailability at 40 min / bioavailability at 4 h / Kp at 40 min / Kp at 4 h: male, mouse, in vivo
Description: Each compound was administered to the mice at 2 mg/kg intravenously (I.V.), 2 mg/kg subcutaneously (S.C.), or 10 mg/kg orally (P.O.).

[5] = system: differentiated rat pheochromocytoma (PC-12) cells; test: Self-toxicity in differentiated PC-12 cells (MTT and/or LDH); conditions: MTT and/or LDH assays, highest concentration tested 100 μM
Description: (§1) The highest concentration tested was 100 μM. Non-toxic compounds then were tested for their ability to inhibit the toxicity of 10 μM Aβ42 in the same assay. The parent compound 1 was used as a control in both cases.

Aβ42-induced toxicity = test: Inhibition of Aβ42 toxicity in differentiated PC-12 cells (MTT/LDH); type: cell-based, rat
Description: as §1

RGD = type: binding; conditions: fluorometric titration in aqueous buffer at neutral pH; read-out: Dissociation constant Kd, RGD
[6] = system: enveloped viruses such as HIV-1 and HSV-2; conditions: cited from earlier work
KAA = type: binding; conditions: fluorometric titration in aqueous buffer at neutral pH; read-out: Dissociation constant Kd, KAA
[7] = CellTiter-Glo cell viability assay on Vero E6 cells; type: cell-based; conditions: African green monkey, CellTiter-Glo (ATP)
Description: (§2) FIG. 1, panels A and B, illustrates the results of a cell viability assay with the new molecular tweezers. Indicated concentrations of compounds were added to the cells and incubated for 2 days before […]-GLO® assay (Promega) was performed on TZM-bl cells (HIV-1 target cells) (panel A), or on Vero E6 (ZIKV target cells) (panel B). The experiment was performed in triplicates, raw data were normalized to untreated cells. Data represent mean±SD (n=3).
(§3) To determine the maximally tolerated concentrations of these derivatives in cell culture and to exclude cytotoxic effects in viral infectivity assays, a CellTiter-Glo® assay (Promega) was performed. This assay quantifies the amount of intracellular ATP. The compounds were directly added to TZM-bl cells (a HeLa derived HIV-1 reporter cell line TZM-bl; 20,000 cells/well, FIG. 1, panel A) or Vero E6 cells (a Zika virus (=ZIKV) permissive cell line; 12,000 cells/well, FIG. 1, panel B). Cell viability was quantified two days later by measuring ATP levels.

[8] = CellTiter-Glo cell viability assay on TZM-bl cells; type: cell-based; conditions: human, CellTiter-Glo (ATP)
Description: as §2, §3

ZIKV strain MR766 = test: ZIKV infectivity (MTT) assay on Vero E6 cells; type: cell-based, Zika virus
Description: FIG. 2, panels A and B, illustrates the results of a ZIKV infectivity (MTT) assay with the new molecular tweezers on Vero E6 cells. […] After 3-4 days, the ZIKV induced cytopathic effect was quantified using the MTT assay.
20-μl of MTT solution (5 mg/ml in PBS) were added to 200 μl cells. Following a 3-h incubation at 37° C., cell-free supernatants were discarded and formazan crystals were dissolved in 100 μl of a 1:2 mixture of dimethyl sulfoxide and ethanol. Absorption was measured at 490 nm and baseline corrected at 650 nm using a VMax Kinetic ELISA microplate reader (Molecular Devices). To determine infection rates, sample values were subtracted from untreated control set to 100%. Error bars are standard deviations of replicates (FIG. 2, panels A and B). […] The selectivity index (SI) (Table 12) is calculated for each compound by dividing its CC50 value by the IC50 value.

CCR5-tropic HIV-1 strain = test: HIV-1 infectivity assay on TZM-bl cells; type: cell-based
Description: FIG. 3, panels A and B, illustrates the results of an HIV-1 infectivity assay with new tweezers on TZM-bl cells. CR5-tropic HIV-1 strain (20 ng/ml p24 antigen) was incubated for 10 min at 37° C. with indicated concentrations of the different compounds before these mixtures were used to infect TZM-bl cells. Three days later, infection rates were determined by measuring β-galactosidase activity.
Infection rates were determined 3 days post infection by detecting β-galactosidase activity in cellular lysates using the Tropix Gal-Screen kit (Applied Biosystems) and an Orion microplate luminometer (Berthold). Values represent % infection (mean) compared to buffer control (FIG. 3, panels A and B). […] Half-maximal inhibitory concentrations (IC50 values), were calculated. […] The selectivity index (SI) is calculated for each compound by dividing its CC50 value by its IC50 value (Table 12).

[9] = CC50 value divided by IC50 value

hydrolysis in mouse liver microsomes [1]: hydrolyzed quantitatively | hydrolysis in simulated gastric fluid [2]: hydrolyzed quantitatively | hydrolysis in mouse plasma [3]: hydrolyzed quantitatively
SMILES: O=C(O)Cc1ccccc1Nc1c(Cl)cccc1Cl [diclofenac]

SMILES: O=P([O-])(O)Oc1c2c(c(O)c3c1C1CC3c3cc4c(cc31)C1CC4c3ccccc31)C1CC2c2cc3c(cc21)C1CC3c2ccccc21.[Na+] [Compound 13]
LogBB (Full 24-h PK profile; I.V.): −2.06 | Blood T1/2 (Full 24-h PK profile; I.V.): 1.2 h | Brain AUC (Full 24-h PK profile; I.V.): 3.71 | Brain T1/2 (Full 24-h PK profile; I.V.): 1.5 h | Blood AUC (Full 24-h PK profile; I.V.): 423 | Blood Bioavailability (Full 24-h PK profile; P.O.): 21.6% | LogBB (Full 24-h PK profile; P.O.): −1.84 | Blood T1/2 (Full 24-h PK profile; P.O.): 16 h | Brain AUC (Full 24-h PK profile; P.O.): 1.33 | Brain T1/2 (Full 24-h PK profile; P.O.): 3.1 h | Blood AUC (Full 24-h PK profile; P.O.): 91.2 | Blood Bioavailability (Full 24-h PK profile; S.C.): 246.7% | LogBB (Full 24-h PK profile; S.C.): 3.31 | Blood T1/2 (Full 24-h PK profile; S.C.): 11.1 h | Brain T1/2 (Full 24-h PK profile; S.C.): 1.1 h | Blood AUC (Full 24-h PK profile; S.C.): 1043 | BBB penetration relative to compound 1 (Full 24-h PK profile; full 24-h PK profile): improved | Blood Concentration, 40 min ([4]; mice, 2 mg/kg I.V., 40 min): 55 ng/mL | Brain Concentration, 40 min ([4]; mice, 2 mg/kg I.V., 40 min): 3.58 ng/g | BBB penetration, 40 min ([4]; mice, 2 mg/kg I.V., 40 min, percent ratio between brain and blood concentration): 6.5% | Blood Concentration, 4 h ([4]; mice, 2 mg/kg I.V.): 53 ng/mL | Brain Concentration, 4 h ([4]; mice, 2 mg/kg I.V.): 1.28 ng/g | BBB penetration, 4 h ([4]; mice, 2 mg/kg I.V., percent ratio between brain and blood concentration): 2.4% | Blood Concentration, 40 min ([4]; mice, 2 mg/kg S.C., 40 min): 98 ng/mL | Brain Concentration, 40 min ([4]; mice, 2 mg/kg S.C., 40 min): 1.19 ng/g | BBB penetration, 40 min ([4]; mice, 2 mg/kg S.C., 40 min, percent ratio between brain and blood concentration): 1.2% | Bioavailability, 40 min ([4]; mice, 2 mg/kg S.C., 40 min): 178.2% | Blood Concentration, 4 h ([4]; mice, 2 mg/kg S.C.): 50 ng/mL | Brain Concentration, 4 h ([4]; mice, 2 mg/kg S.C.): 1.69 ng/g | BBB penetration, 4 h ([4]; mice, 2 mg/kg S.C., percent ratio between brain and blood concentration): 3.4% | Bioavailability, 4 h ([4]; mice, 2 mg/kg S.C.): 94.3% | Blood Concentration, 40 min ([4]; mice, 10 mg/kg P.O., 40 min): 0.0 ng/mL | Brain Concentration, 40 min ([4]; mice, 10 mg/kg P.O., 40 min): 1.79 ng/g | BBB penetration, 40 mm ([4]; mice, 10 mg/kg P.O., 40 min, percent ratio between brain and blood concentration): 0.0% | Bioavailability, 40 min ([4]; mice, 10 mg/kg P.O., 40 min): 0.0% | Blood Concentration, 4 h ([4]; mice, 10 mg/kg P.O.): 0.3 ng/mL | Brain Concentration, 4 h ([4]; mice, 10 mg/kg P.O.): 0.26 ng/g | BBB penetration, 4 h ([4]; mice, 10 mg/kg P.O., percent ratio between brain and blood concentration): 100% | Bioavailability, 4 h ([4]; mice, 10 mg/kg P.O.): 0.5% | Self-toxicity [5]: Non-toxic | protective effect against Aβ42-induced toxicity compared to 1 (Aβ42-induced toxicity; 10 μM Aβ42, differentiated PC-12 cells): higher protective effect | IC50 (Aβ42-induced toxicity; 10 μM Aβ42, differentiated PC-12 cells, LDH assay, read-out: Inhibition of Aβ42 toxicity, IC50 (LDH)): 16 µM

SMILES: O=P(O)(O)Oc1c2c(c(OP(=O)(O)O)c3c1C1CC3c3cc4c(cc31)C1CC4c3ccccc31)C1CC2c2cc3c(cc21)C1CC3c2ccccc21 [Compound 1, CLR01, reference compound]
LogBB (Full 24-h PK profile; I.V.): −3.62 | Brain AUC (Full 24-h PK profile; I.V.): 1.63 | Brain AUC (Full 24-h PK profile; P.O.): 0 | LogBB (Full 24-h PK profile; S.C.): 0.34 | AUC (Full 24-h PK profile; iv, I.V.): 6800 ng·h/mL | half-life (Full 24-h PK profile; iv, I.V., read-out: Blood T1/2 (converted)): 1.8 h | half-life (Full 24-h PK profile; iv, I.V., read-out: Brain T1/2 (converted)): 4 h | AUC (Full 24-h PK profile; po, P.O.): 8.94 ng·h/mL | half-life (Full 24-h PK profile; po, P.O., read-out: Blood T1/2 (converted)): 1.3 h | bioavailability (Full 24-h PK profile; po, P.O.): 0.1% | AUC (Full 24-h PK profile; sc, S.C.): 4740 ng·h/mL | half-life (Full 24-h PK profile; sc, S.C., read-out: Blood T1/2 (converted)): 1.05 h | half-life (Full 24-h PK profile; sc, S.C., read-out: Brain T1/2 (converted)): 0.9 h | bioavailability (Full 24-h PK profile; sc, S.C.): 69.7% | Kd (RGD): 86 µM | concentrations required to inhibit enveloped viruses such as HIV-1 and HSV-2 ([6]; Lump et al. (2015) eLife, 4: e05397): median micromolar range | antiviral activity in the presence of serum ([6]; Rocker et al. (2018) Antiviral Res. 152: 26-35): inhibited | bioavailability at 40 min ([4]; 2 mg/kg): 101% | bioavailability at 4 h ([4]; 2 mg/kg): 86.6% | bioavailability at 40 min ([4]; 10 mg/kg): 0.5% | bioavailability at 4 h ([4]; 10 mg/kg): 0% | Kp at 40 min ([4]; iv, 2 mg/kg): 0 | Kp at 4 h ([4]; iv, 2 mg/kg): 0.002 | Kp at 40 min ([4]; po, 10 mg/kg): 0 | Kp at 4 h ([4]; po, 10 mg/kg): 0 | Kp at 40 min ([4]; sc, 2 mg/kg): 0 | Kp at 4 h ([4]; sc, 2 mg/kg): 0 | Kd (KAA): 30 µM | Self-toxicity [5]: Non-toxic | IC50 (Aβ42-induced toxicity; Rattus norvegicus, PC-12, read-out: Inhibition of Aβ42 toxicity, IC50 (MTT)): 69 µM | CC50 at 2 days [7]: 584 µM | CC50 at 2 days [8]: 964 µM | SI (Vero E6/ZIKV) (ZIKV strain MR766; [9]): 13 | IC50 (ZIKV strain MR766; Zika virus, Vero C1008, read-out: IC50 ZIKV): 46 µM | SI (TZM-bl/HIV-1) (CCR5-tropic HIV-1 strain; [9]): 26 | IC50 (CCR5-tropic HIV-1 strain; Human immunodeficiency virus 1, TZM-bl, read-out: IC50 HIV-1): 37 µM
